Values quoted from earlier work in patent US20210369646A1, “Composition for local tumescent anesthesia” (priority 2020, published 2021).
Read-outs that look alike come from different tables or passages of the source. Values belong to the compound of their own block, whether it stands above or below them.

Columns and labels:
[1] = system: alpha 1 acid glycoprotein; settings: bound to alpha 1 acid glycoprotein almost entirely
plasminogen = plasminogen (Homo sapiens, UniProt P00747)
plasminogen, sequence (P00747 20-810 limits assumed): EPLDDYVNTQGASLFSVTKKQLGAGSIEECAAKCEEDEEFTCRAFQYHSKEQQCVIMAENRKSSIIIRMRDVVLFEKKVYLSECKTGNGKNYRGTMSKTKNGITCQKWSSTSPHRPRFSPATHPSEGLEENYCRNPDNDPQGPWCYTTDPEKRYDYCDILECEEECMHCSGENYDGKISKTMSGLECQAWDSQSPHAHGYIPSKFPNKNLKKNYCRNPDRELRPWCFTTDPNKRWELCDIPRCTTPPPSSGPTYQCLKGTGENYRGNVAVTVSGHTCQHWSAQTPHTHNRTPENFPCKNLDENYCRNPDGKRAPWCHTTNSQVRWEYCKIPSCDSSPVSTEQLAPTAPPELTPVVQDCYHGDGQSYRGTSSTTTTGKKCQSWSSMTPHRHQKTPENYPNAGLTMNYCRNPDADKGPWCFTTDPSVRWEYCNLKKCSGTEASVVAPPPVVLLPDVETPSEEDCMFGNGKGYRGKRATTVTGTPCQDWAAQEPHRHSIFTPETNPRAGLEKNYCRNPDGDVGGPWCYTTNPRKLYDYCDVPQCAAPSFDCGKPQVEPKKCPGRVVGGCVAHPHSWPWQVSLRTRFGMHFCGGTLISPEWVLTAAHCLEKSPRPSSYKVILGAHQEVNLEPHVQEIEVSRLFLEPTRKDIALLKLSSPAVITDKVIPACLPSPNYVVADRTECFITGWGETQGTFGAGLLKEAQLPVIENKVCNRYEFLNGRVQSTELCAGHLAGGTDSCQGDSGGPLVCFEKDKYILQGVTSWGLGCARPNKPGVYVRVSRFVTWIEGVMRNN

- total doses excreted into the urine (after next 18 hours): 50%
- total doses excreted into the urine (by the first 6 hours): 50%
- middle lifetime (in vivo): 20 s
- principal metabolite: conjugated metanephrine (in vivo): 40%
- principal metabolite: vanillylmandelic acid (in vivo): 40%
- maximum concentration after a subcutaneous injection (time) (subcutaneous injection): 20 to 40 min
SMILES: CNC[C@H](O)c1ccc(O)c(O)c1 [Epinephrine]

- free protein form [1]: 6%
- excreted through the kidneys into the urine (in vivo): ~86%
- transformed into 3-hydroxy-ropivacaine (aromatic hydroxylation) (liver, share of all anesthetic agent): 99%
SMILES: CCCN1CCCC[C@H]1C(=O)Nc1c(C)cccc1C [Ropivacaine]

- plasmatic protein bound (plasmatic protein): 3%
- free protein form (plasmatic protein; in words): no free protein form
- affinity to plasminogen (plasminogen): high affinity
- middle lifetime (after the administration): 11000 s
- excreted through the kidneys into the urine without a conjugated form (by the first 24 hours): 90%
SMILES: NC[C@H]1CC[C@H](C(=O)O)CC1 [Tranexamic acid]
